System: mice
Experiment: Radioprotection of mouse jejunum, subcutaneous administration: local reaction at injection site
Assay type: in vivo
Conditions: subcutaneous solutions in polyethylene glycol (MW 400), similar experiments with the jejunum model
Procedure: 2-Hydroxypropyl-β-cyclodextrin (HPCD, Sigma-Aldrich, typical MW 1540) vehicle solution was prepared by dissolving 3.6 g of HPCD in 9.3 mL of phosphate buffered saline (PBS) resulting in 30% v/w solution. […] The concentration of M2PB was measured following appropriate dilution in 45% MeOH 0.1% TFA using an extinction coefficient […] at 345 nm. The M2PB/HPCD stock was diluted to 8.75 mg/mL (22 mM) in HPCD vehicle to produce the final M2PB/HPCD formulation, which was injected subcutaneously into mice, between the shoulder blades (scruff of the neck) at a volume of 8×10^−3 ml/g body weight.
The subsequent irradiation and analysis was as described for Example 56.

Q: With `Cc1cc(N(C)C)ccc1-c1nc2ccc(-c3nc4ccc(N5CCN(C)CC5)cc4[nH]3)cc2[nH]1` [methylproamine, reference compound] as the compound, how does the “local reaction or toxicity at the site of subcutaneous injection” value read?
A: had been observed

From USRE46943E1, “Radioprotector compounds and methods” (PETER MACCALLUM CANCER INSTITUTE, priority 2010, dated 2018)
